What was measured:
[1] = target: T1, human 5-HT1D receptor (Homo sapiens, UniProt P28221); test: R-SAT assay 5-HT1D; assay type: cell-based; settings: Table 3, 5-HT1D; for Eff (%): percent response of reference 5-CT
T1 construct: expressed in transfected cells; host or cells: NIH/3T3

[2] = target: T2, human alpha2A receptor (Homo sapiens, UniProt P08913); test: R-SAT assay α2A; assay type: cell-based; settings: Table 3, α2A; percent response of reference UK 14,306
T2 construct: expressed in transfected cells; host or cells: NIH/3T3 cells, transient transfection, pSI vector
T2 sequence (P08913 whole entry): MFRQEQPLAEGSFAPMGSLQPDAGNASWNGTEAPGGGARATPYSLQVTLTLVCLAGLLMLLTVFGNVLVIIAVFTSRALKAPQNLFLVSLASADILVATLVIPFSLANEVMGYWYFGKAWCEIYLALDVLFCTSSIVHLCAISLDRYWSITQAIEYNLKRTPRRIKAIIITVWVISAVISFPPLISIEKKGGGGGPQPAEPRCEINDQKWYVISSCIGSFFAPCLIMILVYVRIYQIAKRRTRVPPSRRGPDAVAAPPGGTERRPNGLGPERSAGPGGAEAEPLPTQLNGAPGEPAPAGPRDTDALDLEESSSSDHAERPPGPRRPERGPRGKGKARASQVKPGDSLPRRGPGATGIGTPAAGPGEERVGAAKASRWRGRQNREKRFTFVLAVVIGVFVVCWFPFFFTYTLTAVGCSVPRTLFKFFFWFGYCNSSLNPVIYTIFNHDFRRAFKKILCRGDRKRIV

[3] = target: T3, human H1 receptor (Homo sapiens, UniProt P35367); test: R-SAT assay H1; assay type: cell-based; settings: Table 3, H1; percent response of reference Histamine
T3 construct: expressed in transfected cells; host or cells: NIH/3T3
T3 sequence (P35367 whole entry): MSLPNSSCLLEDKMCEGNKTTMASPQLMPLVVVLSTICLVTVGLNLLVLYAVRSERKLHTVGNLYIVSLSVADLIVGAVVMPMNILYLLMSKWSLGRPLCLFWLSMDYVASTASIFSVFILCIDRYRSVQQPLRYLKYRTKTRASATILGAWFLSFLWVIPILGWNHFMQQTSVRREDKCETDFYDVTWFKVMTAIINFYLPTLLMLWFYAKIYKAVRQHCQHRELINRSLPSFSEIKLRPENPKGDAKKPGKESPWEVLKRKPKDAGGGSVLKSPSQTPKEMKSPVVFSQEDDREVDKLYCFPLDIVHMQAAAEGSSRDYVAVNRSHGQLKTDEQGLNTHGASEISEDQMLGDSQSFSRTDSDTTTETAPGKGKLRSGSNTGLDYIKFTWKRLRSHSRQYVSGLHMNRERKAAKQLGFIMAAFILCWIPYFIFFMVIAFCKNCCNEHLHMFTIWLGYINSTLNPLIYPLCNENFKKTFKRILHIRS

[4] = target: T4, human M2 receptor (Homo sapiens, UniProt P08172); test: R-SAT assay M2; assay type: cell-based; settings: Table 3, M2; percent response of reference Carbachol
T4 construct: expressed in transfected cells; host or cells: NIH/3T3
T4 sequence (P08172 1-466): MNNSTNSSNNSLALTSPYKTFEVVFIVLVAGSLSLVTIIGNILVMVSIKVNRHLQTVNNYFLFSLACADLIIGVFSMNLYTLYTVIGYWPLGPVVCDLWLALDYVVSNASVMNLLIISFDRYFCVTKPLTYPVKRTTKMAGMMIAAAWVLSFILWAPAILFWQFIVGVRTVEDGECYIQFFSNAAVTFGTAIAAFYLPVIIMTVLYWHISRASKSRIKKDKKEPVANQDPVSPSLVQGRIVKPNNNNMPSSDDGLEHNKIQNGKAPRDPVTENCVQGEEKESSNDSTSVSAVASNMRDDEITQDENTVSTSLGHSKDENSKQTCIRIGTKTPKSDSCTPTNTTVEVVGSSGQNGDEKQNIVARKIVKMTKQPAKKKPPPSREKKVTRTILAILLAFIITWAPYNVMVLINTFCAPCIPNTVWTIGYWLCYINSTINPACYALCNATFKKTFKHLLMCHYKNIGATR

[5] = target: T5, human alpha2B receptor (Homo sapiens, UniProt P18089); test: R-SAT assay α2B; assay type: cell-based; settings: Table 3, α2B; percent response of reference UK 14,306
T5 construct: expressed in transfected cells; host or cells: NIH/3T3 cells, transient transfection, pSI vector
T5 sequence (P18089 whole entry): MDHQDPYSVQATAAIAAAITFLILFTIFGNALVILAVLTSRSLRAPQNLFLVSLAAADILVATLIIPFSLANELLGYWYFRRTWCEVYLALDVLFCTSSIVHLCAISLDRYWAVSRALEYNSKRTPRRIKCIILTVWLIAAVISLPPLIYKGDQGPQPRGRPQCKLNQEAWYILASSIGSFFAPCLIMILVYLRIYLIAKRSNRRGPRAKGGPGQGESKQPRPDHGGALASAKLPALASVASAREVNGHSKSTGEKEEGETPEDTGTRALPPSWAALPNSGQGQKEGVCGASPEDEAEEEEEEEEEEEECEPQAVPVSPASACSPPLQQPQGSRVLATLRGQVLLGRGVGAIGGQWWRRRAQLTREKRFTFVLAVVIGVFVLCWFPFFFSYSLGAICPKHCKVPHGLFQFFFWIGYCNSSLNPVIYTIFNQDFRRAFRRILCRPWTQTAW

[6] = target: T6, human M4 receptor (Homo sapiens, UniProt P08173); test: R-SAT assay M4; assay type: cell-based; settings: Table 3, M4; percent response of reference Carbachol
T6 construct: expressed in transfected cells; host or cells: NIH/3T3
T6 sequence (P08173 1-479): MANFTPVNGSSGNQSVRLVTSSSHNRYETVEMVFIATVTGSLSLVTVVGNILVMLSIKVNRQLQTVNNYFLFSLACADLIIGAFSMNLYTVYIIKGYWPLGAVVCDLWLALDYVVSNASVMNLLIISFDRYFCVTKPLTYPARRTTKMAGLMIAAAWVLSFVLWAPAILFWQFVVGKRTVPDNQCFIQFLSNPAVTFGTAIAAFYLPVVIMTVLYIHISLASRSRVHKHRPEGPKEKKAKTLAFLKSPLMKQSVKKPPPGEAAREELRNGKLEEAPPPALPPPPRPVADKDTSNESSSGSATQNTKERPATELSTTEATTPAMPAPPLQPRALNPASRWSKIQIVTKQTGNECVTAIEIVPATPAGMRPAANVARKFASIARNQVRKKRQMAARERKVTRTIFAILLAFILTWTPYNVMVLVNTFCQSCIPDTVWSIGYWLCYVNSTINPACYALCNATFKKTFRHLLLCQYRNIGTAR

[7] = target: human 5-HT1B receptor (Homo sapiens, UniProt P28222); test: R-SAT assay 5-HT1B; assay type: cell-based; settings: Table 3, 5-HT1B; for Eff (%): percent response of reference 5-CT
Chain of human 5-HT1B receptor (P28222 whole entry): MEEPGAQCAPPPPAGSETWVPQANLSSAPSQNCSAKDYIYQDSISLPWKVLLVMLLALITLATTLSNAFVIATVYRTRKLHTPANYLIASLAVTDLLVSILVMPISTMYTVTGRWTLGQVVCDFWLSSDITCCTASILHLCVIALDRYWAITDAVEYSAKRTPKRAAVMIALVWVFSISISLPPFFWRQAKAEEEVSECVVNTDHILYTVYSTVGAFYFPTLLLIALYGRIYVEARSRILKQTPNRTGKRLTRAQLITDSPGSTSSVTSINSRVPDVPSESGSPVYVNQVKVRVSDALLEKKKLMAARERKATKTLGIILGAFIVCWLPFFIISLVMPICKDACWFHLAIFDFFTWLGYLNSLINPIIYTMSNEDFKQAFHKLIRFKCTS

[8] = tested on: DOI-induced head twitches in mice; test: Antagonism of DOI-induced head twitch response in mice; assay type: in vivo; settings: DOI 1 mg/kg ip, 75 or 150 μmol/kg ip
Description: The animals used in the head twitch experiments were individually placed in Macrolon type II cages and allowed to habituate to these test cages during 30 minutes before the video registration of behavior began. […] The animals were videotaped for 10 minutes; the behavior was scored during the first 5 minutes. The number of head twitches was counted from the videotapes by a person blind to the treatment.
The purpose of the second experiment was to investigate whether the OSU6162 enantiomers would be able to counteract DOI-induced head twitches. […] The mice were habituated to the test cages during 30 minutes before the video registration of behavior began. All compounds were administered 10 min before the registration of behavior started. DOI was given in dose of 1 mg/kg (ip) throughout. […] In b) the interaction between (+)-OSU6162 (75 or 150 μmol/kg ip) and DOI is shown. In c) the interaction between (−)- or (+)-OSU6162 (75 μmol/kg ip) and DOI is shown.

[9] = target: T7, human alpha2C receptor (Homo sapiens, UniProt P18825); test: R-SAT assay α2C; assay type: cell-based; settings: Table 3, α2C; percent response of reference UK 14,306
T7 construct: expressed in transfected cells; host or cells: NIH/3T3 cells, transient transfection, pSI vector
T7 sequence (P18825 1-462): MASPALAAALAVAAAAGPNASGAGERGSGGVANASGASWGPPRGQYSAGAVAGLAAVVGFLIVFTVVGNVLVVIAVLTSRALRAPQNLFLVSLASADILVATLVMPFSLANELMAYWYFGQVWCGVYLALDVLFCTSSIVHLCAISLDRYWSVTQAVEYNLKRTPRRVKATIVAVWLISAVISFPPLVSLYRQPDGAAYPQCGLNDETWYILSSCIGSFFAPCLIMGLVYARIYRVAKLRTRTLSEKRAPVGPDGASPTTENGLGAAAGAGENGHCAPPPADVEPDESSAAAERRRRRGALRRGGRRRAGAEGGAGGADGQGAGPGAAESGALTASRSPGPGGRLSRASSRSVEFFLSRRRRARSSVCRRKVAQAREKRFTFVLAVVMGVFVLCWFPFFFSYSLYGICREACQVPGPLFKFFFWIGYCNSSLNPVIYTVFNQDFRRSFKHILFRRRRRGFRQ

[10] = target: human 5-HT2A receptors (Homo sapiens, UniProt P28223); test: Phosphatidyl inositol (PI) hydrolysis assay at 5-HT2A; assay type: cell-based; parameters: expressed in transfected cells; settings: mean ± SEM; for EC50: negative logarithm of EC50 in molar (M), HEK 293T cells, read-out: PI Hydrolysis pEC50 (converted); for PI Hydrolysis Eff (%): percent response of reference ligand 5-HT
Chain of human 5-HT2A receptors (P28223 whole entry): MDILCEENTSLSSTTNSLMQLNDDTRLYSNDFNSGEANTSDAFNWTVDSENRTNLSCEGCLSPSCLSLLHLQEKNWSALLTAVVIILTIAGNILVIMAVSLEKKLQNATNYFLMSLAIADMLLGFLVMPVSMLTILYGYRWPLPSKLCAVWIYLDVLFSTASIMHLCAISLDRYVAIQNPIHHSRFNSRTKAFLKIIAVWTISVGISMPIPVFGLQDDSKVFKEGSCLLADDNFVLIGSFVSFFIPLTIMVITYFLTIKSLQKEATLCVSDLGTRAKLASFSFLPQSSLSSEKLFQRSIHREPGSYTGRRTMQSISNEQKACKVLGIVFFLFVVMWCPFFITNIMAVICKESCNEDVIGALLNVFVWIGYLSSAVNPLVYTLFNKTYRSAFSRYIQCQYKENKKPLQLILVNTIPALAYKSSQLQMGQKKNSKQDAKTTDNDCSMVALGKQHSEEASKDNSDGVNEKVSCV
Description: After lysing the cells with 50 μl of 0.1M formic acid, 20 μl each cell lysate was mixed with 80 μl (1 mg) RNA Binding YSi-SPA beads (GE Healthcare, Chalfont St. Giles, UK) on PICO plates (PerkinElmer) and counted on a TopCount (Packard).
Each curve is representative of at least three or more independent experiments.

[11] = tested on: habituated rats; test: Locomotion in habituated rats, photocell activity boxes; settings: 5-35 minutes after injection; for locomotion in habituated rats: 6.25, 12.5, 50, 100, 200 and 400 μmol/kg sc, vs Control; for locomotion, accumulated unrepeated beam breaks, means±SEM of pooled groups: habituated rats, 50 μmol/kg sc, 30 minutes period, controls 23±6
Description: Motor activity experiments in both active and habituated rats were performed on male Sprague-Dawley rats (Charles River, Germany) weighing 280-320 g. Prior to testing, rats were housed in groups of four or five in ventilated Macrolon type IV cages for approximately one week.
Rats were housed in a normal daylight cycle and the experiments were carried out during daytime. […] During the following 5 minutes test drugs were injected, after which the rats were returned to the boxes for another 60 minutes. Five by five rows of photocell beams at floor level allowed a computer based-system to register horizontal activity. Motor activity is presented as accumulated number of unrepeated beam breaks, i.e. several consecutive breakings of one beam is counted as one beam break. The software was set to register behavior from the rats' first introduction into the arena until it was finally removed from the box, i.e. for 110 or 130 minutes.
Locomotion was measured as accumulated unrepeated beam breaks. […] This was followed by 60 minutes of registration. Data are calculated from a 30 minutes period, 5-35 minutes after injection, and plotted as means and SEM. […] Data were calculated from a 30 minutes period, 5-35 minutes after injection.
The effect of haloperidol on the locomotor stimulation was also studied in habituated rats (see FIG. 10). Locomotion was measured as accumulated unrepeated beam breaks. Rats were given haloperidol (0.05, 0.2, 0.5 mg/kg, sc) and were then allowed to habituate for 65 minutes. […] Data are calculated from a 30 minutes period, taken 5-35 minutes after injection, and plotted as means and SEM. N=4-5.

[12] = target: human serotonin transporter (SERT) (Homo sapiens, UniProt P31645); settings: displacement of 3H-Imipramine
Chain of human serotonin transporter (SERT) (P31645 whole entry): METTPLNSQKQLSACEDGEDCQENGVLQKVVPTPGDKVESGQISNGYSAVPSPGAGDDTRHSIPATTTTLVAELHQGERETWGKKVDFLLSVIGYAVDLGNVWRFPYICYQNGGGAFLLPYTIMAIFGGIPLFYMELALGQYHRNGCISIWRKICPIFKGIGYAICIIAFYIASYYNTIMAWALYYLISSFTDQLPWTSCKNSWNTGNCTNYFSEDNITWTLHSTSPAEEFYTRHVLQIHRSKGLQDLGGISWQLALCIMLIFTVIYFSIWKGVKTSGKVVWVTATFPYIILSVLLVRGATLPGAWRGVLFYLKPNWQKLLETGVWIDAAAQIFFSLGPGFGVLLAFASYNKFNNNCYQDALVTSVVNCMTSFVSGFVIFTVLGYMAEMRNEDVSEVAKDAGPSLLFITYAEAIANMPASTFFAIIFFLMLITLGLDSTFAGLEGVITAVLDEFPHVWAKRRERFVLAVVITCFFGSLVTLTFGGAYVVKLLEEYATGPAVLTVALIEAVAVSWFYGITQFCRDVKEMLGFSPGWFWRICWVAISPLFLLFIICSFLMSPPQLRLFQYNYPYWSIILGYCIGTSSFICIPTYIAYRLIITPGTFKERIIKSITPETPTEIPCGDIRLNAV
Description: Cells were not centrifuged following cell scraping, but were collected directly into the ice-cold nitrogen cavitation chamber.
Membranes were prepared as described above. […] Binding reactions were terminated by filtration through UniFilter-96GF/B filters (from Perkin-Elmer, presoaked with 0.1% polyethylenimine for 1 h) with a Brandel 96-well harvester. Filters were washed with ice-cold wash buffer (50 mM Tris, 120 mM NaCl, pH7.4; 500 ml/plate) and then allowed to air-dry for 30 min. 50 μl MacrosScint-20 scintillation cocktail was added to each well, the plates were sealed, and then counted on a Top-Count (Packard).

T1 sequence (P28221 whole entry): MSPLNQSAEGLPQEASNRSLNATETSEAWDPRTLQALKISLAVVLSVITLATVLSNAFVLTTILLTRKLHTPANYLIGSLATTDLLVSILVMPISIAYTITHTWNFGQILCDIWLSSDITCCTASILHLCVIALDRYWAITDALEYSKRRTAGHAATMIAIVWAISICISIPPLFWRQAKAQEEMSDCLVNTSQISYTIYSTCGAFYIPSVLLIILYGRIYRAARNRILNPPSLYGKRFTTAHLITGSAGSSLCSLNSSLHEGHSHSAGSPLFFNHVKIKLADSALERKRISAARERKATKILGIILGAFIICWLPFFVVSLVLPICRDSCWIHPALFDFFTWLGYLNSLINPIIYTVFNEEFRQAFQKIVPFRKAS

## CCCN1CCC[C@H](c2cccc(S(C)(=O)=O)c2)C1 [(+)-OSU6162, (3R)-3-[3-(methylsulfonyl)phenyl]-1-propylpiperidine]
[1]
  Eff (%): 28%
[2]
  Eff (%): 5%
[3]
  Eff (%): 3%
[4]
  Eff (%): 22%
[5]
  Eff (%): 8%
[6]
  Eff (%): 4%
[7]
  Eff (%): 20%
[8]
  antagonism of DOI-induced head twitches: neither 75 nor 150 μmol/kg of (+)-OSU6162 significantly antagonized DOI-induced head twitches
[9]
  Eff (%): 13%
[10]
  EC50: 2e-06 M
  PI Hydrolysis Eff (%): 82 ± 4%
[11]
  locomotion in habituated rats: significant locomotor stimulation was observed for all doses but the two lowest
  locomotion, accumulated unrepeated beam breaks, means±SEM of pooled groups: 95±12 unrepeated beam breaks
[12]
  Inh %: 38%

## CCCN1CCC[C@@H](c2cccc(S(C)(=O)=O)c2)C1 [(−)-OSU6162, (3S)-3-[3-(methylsulfonyl)phenyl]-1-propylpiperidine]
[1]; negative logarithm of EC50 in molar
  EC50: 5010 nM
[1]
  Eff (%): 132%
[2]
  Eff (%): 2%
[3]
  Eff (%): 2%
[4]
  Eff (%): 9%
[5]
  Eff (%): 13%
[6]
  Eff (%): 2%
[7]; negative logarithm of EC50 in molar, read-out: pEC50 (converted)
  EC50: 2510 nM
[7]
  Eff (%): 75%
[8]
  antagonism of DOI-induced head twitches: significantly antagonized DOI-induced head twitches
[9]
  Eff (%): 6%
[10]
  EC50: 1.26e-06 M
  PI Hydrolysis Eff (%): 65 ± 4%
[11]
  locomotion in habituated rats: significant locomotor stimulation was observed for all doses but the lowest
  locomotion, accumulated unrepeated beam breaks, means±SEM of pooled groups: 129±11 unrepeated beam breaks
[12]
  Inh %: 26%
